Experimental data reported in patent publication US10822337B2, “TGF-β inhibitorC” (Rigel Pharmaceuticals, Inc., priority 2015, dated 2020).

How the values were obtained:
[1] = system: GDF8 signaling (GDF pSMAD, MPC11); assay: AlphaScreen SureFire SMAD3 (p-Ser423/425) assay, inhibition of GDF8 signaling; format: cell-based; details: Mus musculus, MPC-11, p-SMAD-3 (Ser423/425) in cell lysate after GDF8 stimulation
[2] = system: TGF-β signaling (TGF-β pSMAD, MPC-11); assay: AlphaScreen SureFire SMAD3 (p-Ser423/425) assay, inhibition of TGF-β signaling; format: cell-based; details: Mus musculus, p-SMAD-3 (Ser423/425) in cell lysate after TGF-β stimulation
Outline: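 Phosphorylation of endogenous SMAD-3 at Ser423/425 was quantified with an AlphaScreen SureFire assay. Cells were exposed to compound for about 10 minutes, stimulated with TGF-β, and lysed in 1× Lysis Buffer. Lysate (5 μL) was combined with Reaction/Activation buffer plus Acceptor beads for 2 hours, then Donor beads for 1½ hours, and read on a plate reader.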

Row | SMILES | IC50 [1] [µM] | IC50 [2] [µM]
1 | COc1cccc(-c2nn3c(c2-c2ccc4nccnc4c2)OCC3)c1 [Compound 76, 6-(3-Methoxyphenyl)-7-(quinoxalin-6-yl)-2,3-dihydropyrazolo[5,1-b]oxazole] | 0.18 | 0.649
2 | Fc1ccc(-c2nn3c(c2-c2ccc4nccn4c2)CCC3)cc1F [Compound 86, 6-(2-(3,4-Difluorophenyl)-5,6-dihydro-4H-pyrrolo[1,2-b]pyrazol-3-yl)imidazo[1,2-a]pyridine] | 0.272 | 0.926
3 | Fc1ccc(-c2nn3c(c2-c2ccc4cn[nH]c4c2)CCC3)c(F)c1Cl [Compound 156, 6-(2-(3-Chloro-2,4-difluorophenyl)-5,6-dihydro-4H-pyrrolo[1,2-b]pyrazol-3-yl)-1H-indazole] | 0.44 | 2.84
4 | FC(F)(F)c1cccc(-c2nn3c(c2-c2ccc4ncccc4c2)CCC3)c1 [Compound 50, 6-(2-(3-Trifluoromethylphenyl)-5,6-dihydro-4H-pyrrolo[1,2-b]pyrazol-3-yl)quinoline] | 0.473 | 4.19
5 | Fc1ccc(-c2nn3c(c2-c2ccc4ncccc4c2)CCC3)c(F)c1 [Compound 95, 6-(2-(2,4-Difluorophenyl)-5,6-dihydro-4H-pyrrolo[1,2-b]pyrazol-3-yl)quinoline] | 0.559 | 3.74
6 | Cc1c(F)ccc(-c2nn3c(c2-c2ccc4nccn4c2)CCC3)c1F [Compound 169, 6-(2-(2,4-Difluoro-3-methylphenyl)-5,6-dihydro-4H-pyrrolo[1,2-b]pyrazol-3-yl)imidazo[1,2-a]pyridine] | 0.178 | 0.464
7 | Fc1ccc(-c2nn3c(c2-c2ccc4ncsc4c2)CCC3)cc1OC(F)(F)F [Compound 152, 6-(2-(4-Fluoro-3-trifluoromethoxyphenyl)-5,6-dihydro-4H-pyrrolo[1,2-b]pyrazol-3-yl)benzo[d]thiazole] | 0.486 | 1.75
8 | Cc1cccc(-c2nn3c(c2-c2ccc4c(cnn4C)c2)CCC3)c1 [Compound 10, 1-Methyl-5-(2-(m-tolyl)-5,6-dihydro-4H-pyrrolo[1,2-b]pyrazol-3-yl)-1H-indazole] | 0.643 | 2.59
9 | Fc1ccc(Cl)cc1-c1nn2c(c1-c1ccc3ncccc3c1)CCC2 [Compound 176, 6-(2-(5-Chloro-2-fluorophenyl)-5,6-dihydro-4H-pyrrolo[1,2-b]pyrazol-3-yl)quinoline] | 0.0466 | 0.139
10 | Cc1cccc(-c2nn3c(c2-c2ccc4ncnn4c2)CCC3)c1 [Compound 104, 6-(2-(m-Tolyl)-5,6-dihydro-4H-pyrrolo[1,2-b]pyrazol-3-yl)-[1,2,4]triazolo[1,5-a]pyridine] | 0.0266 | 0.083

Results, then the molecule that gave them:

Row | IC50 [1] [µM] | IC50 [2] [µM] | SMILES
11 | 0.272 | 0.872 | Fc1cc(F)c(-c2nn3c(c2-c2ccc4ncccc4c2)CCC3)cc1Cl [Compound 190, 6-(2-(5-Chloro-2,4-difluorophenyl)-5,6-dihydro-4H-pyrrolo[1,2-b]pyrazol-3-yl)quinoline]
12 | 0.0356 | 0.0835 | Fc1ccc(Cl)cc1-c1nn2c(c1-c1ccc3nccnc3c1)CCC2 [Compound 177, 6-(2-(5-Chloro-2-fluorophenyl)-5,6-dihydro-4H-pyrrolo[1,2-b]pyrazol-3-yl)quinoxaline]
13 | 0.063 | 0.0817 | Fc1cc(F)c(-c2nn3c(c2-c2ccc4nccn4c2)CCC3)cc1Cl [Compound 188, 6-(2-(5-Chloro-2,4-difluorophenyl)-5,6-dihydro-4H-pyrrolo[1,2-b]pyrazol-3-yl)imidazo[1,2-a]pyridine]
14 | 0.074 | 0.212 | Fc1cc(F)c(-c2nn3c(c2-c2ccc4nccnc4c2)CCC3)cc1Cl [Compound 191, 6-(2-(5-Chloro-2,4-difluorophenyl)-5,6-dihydro-4H-pyrrolo[1,2-b]pyrazol-3-yl)quinoxaline]
